The assay concerns TRPV6 W593A. Briefly: NFAT screen, TRPV6 W593A. It counts as cell-based, human. Particulars: HEK293 cells; 5 μM cis-22a, 2 h. As for the experimental part: N-terminally TagRFP-labeled human TRPV6 (725 aa) was kindly provided by R. Bhardwaj and M. Hediger (University of Bern, Bern, Switzerland). This variant is translated from the first ATG codon and thus deviates from the non-ATG-initiated protein which is expressed in vivo (accession number NM_018646.6) by lacking 40 amino acids of the very N-terminus. For N-terminal labeling with EYFP, TRPV6 was cloned into pEYFP-C1 (Clontech) via EcoRI and SacII restriction sites. […]
After incubation, cover slips were carefully rinsed with phenol red-free DMEM supplemented with the compound and dosage corresponding to the previous incubation, which was then also present during imaging. […] Subcellular NFAT localization of TRPV6 expressing cells was again monitored on an Axiovert 135 inverted microscope (Zeiss, Oberkochen, Germany), as described in more detail before. […] Images were analyzed using Matlab2018a, differentiating between three cell populations based on the ratio of CFP emission intensity originating from the nucleus and the cytosol, similar to Schober et al. (2019).

SMILES strings stand for the structures.

Consider one molecule from paper PMC10779433, “Bidirectional Allosteric Coupling between PIP2 Binding and the Pore of the Oncochannel TRPV6” (International Journal of Molecular Sciences, 2024).

Take `Cc1cccc(C2CCC(N3CCN(c4cccnc4)CC3)CC2)c1.O=C(O)C(F)(F)F` (stereo not drawn) [cis-22a]: the “reduction in nuclear NFAT” value is reported as “lower yet significant decrease in the proportion of cells showing NFAT in the nucleus”.
